Test results reported in BindingDB's records for doi:10.7270/Q2DV1HH8 (Burnham Center For Chemical Genomics, 2012).
Several values for one entry are separate records, joined by “and”; a condition that tells them apart may be missing. Equal values may be shown once. Where a name gives a salt, the structure may show the parent alone. Numbered stars: 1 amine (or outer) side, 2 acyl side, 3 side chain; on linkers, the order of the positions; unused ones are H or OH. Bridge positions count the residues as written; N and C are the ends. Square brackets hold non-standard residues; d marks the D form. Peptide text beside a SMILES is read from it. ξ: configuration not given here. X1 = CC[C@H](CCC[C@@H](O)[C@@H](C)C(=O)O[C@H](C)[C@@H](C)C/C=C(C)\C(=C/C(=O)[*:1])OC)O[*:2]; NMeξIle = CC[C@H](C)C(NC)C(=O)O; NMeV = CN[C@H](C(=O)O)C(C)C; NMeS = CN[C@@H](CO)C(=O)O

Target: T1, Protein skinhead-1 (Caenorhabditis elegans, UniProt P34707)
T1 sequence (P34707 whole entry): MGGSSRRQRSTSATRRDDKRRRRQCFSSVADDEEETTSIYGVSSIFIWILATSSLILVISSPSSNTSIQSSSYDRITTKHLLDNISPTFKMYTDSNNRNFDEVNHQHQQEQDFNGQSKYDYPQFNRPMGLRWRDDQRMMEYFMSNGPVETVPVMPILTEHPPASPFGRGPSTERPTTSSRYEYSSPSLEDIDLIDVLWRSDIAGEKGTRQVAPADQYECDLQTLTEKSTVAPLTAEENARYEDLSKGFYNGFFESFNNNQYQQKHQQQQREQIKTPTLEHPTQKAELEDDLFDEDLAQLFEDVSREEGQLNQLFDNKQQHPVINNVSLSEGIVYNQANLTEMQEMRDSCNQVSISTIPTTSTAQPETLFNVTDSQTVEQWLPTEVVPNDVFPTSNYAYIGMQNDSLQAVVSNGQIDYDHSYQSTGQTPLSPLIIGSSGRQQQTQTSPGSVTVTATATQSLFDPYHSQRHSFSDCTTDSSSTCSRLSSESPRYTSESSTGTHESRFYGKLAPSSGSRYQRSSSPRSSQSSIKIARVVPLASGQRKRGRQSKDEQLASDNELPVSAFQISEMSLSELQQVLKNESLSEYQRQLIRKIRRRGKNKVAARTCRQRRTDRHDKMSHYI

[1] = inactive by the depositor's call

| IC50 [1] | SMILES | IC50 |
| --- | --- | --- |
| – | COC(=O)c1cc(=O)nc2sccn12 | 21.9 µM |
| – | CN(C)c1ccc(N=CCC(=O)c2ccco2)cc1 | 70.5 µM |
| – | O=C(CC=Nc1cccc(F)c1)c1cccs1 | 46.7 µM |
| – | O=C1/C(=C/c2ccccn2)CCc2ccccc21 | 78.5 µM |
| – | Nc1ccc(/C=C2\C=Cc3ccccc32)cc1 | 45 µM |
| – | Cc1ccc2nc(-c3cccnc3)c(NC3CCCCC3)n2c1 | 23.5 µM |
| – | Cc1ccc(N=CC(C(=O)c2ccco2)C(=O)C(F)(F)F)cc1Cl (stereo unspecified) [2-{[(3-chloro-4-methylphenyl)amino]methylene}-4,4,4-trifluoro-1-(2-furyl)-1,3-butanedione] | 14.3 µM |
| – | O=C(c1ccco1)C(C=Nc1ccc(Br)cc1)C(=O)C(F)(F)F (stereo unspecified) [2-{[(4-bromophenyl)amino]methylene}-4,4,4-trifluoro-1-(2-furyl)-1,3-butanedione] | 21 µM |
| – | O=C(CC=Nc1ccc(F)c(F)c1)c1cccs1 [3-[(3,4-difluorophenyl)amino]-1-(2-thienyl)-2-propen-1-one] | 11.4 µM |
| – | Cc1ccc(N=CCC(=O)c2cccs2)cc1 [3-[(4-methylphenyl)amino]-1-(2-thienyl)-2-propen-1-one] | 60.3 µM |
| – | O=C1C=CC(=O)c2c(O)c(N3CCN(CCOCCO)CC3)c(Br)c(O)c21 [6-bromo-5,8-dihydroxy-7-[4-[2-(2-hydroxyethoxy)ethyl]piperazin-1-yl]naphthalene-1,4-dione;hydrochloride] | 75.5 µM |
| – | COC(=O)[C@]12OC[C@]34[C@H]([C@@H](O)[C@@H]1O)[C@@]1(C)CC(=O)C(=O)C(C)[C@@H]1C[C@H]3OC(=O)[C@H](OC(=O)/C=C(\C)C(C)C)[C@@H]24 (stereo partly drawn) [10,15,16-trihydroxy-9,13-dimethyl-17-methyloxycarbonyl-4,11-dioxo-(1R,2S,3R,6R,8R,13S,14R,15R,16S,17R)-5,18-dioxapentacyclo[12.5.0.01,6.02,17.08,13]nonadec-9-en-3-yl 3,4-dimethyl-(E)-2-pentenoate] | 75.3 µM |
| – | O=C1N[C@@H]2C(=C[C@H](O)[C@@H](O)[C@H]2O)c2cc3c(c(O)c21)OCO3 [(2S,3R,4S,4aR)-2,3,4,7-Tetrahydroxy-3,4,4a,5-tetrahydro-2H-[1,3]dioxolo[4,5-j]phenanthridin-6-one] | 51.4 µM |
| 79.9 µM | Cc1cccc(C=CC(=O)c2ccc(N=C3NCCCS3)cc2)c1 [(E)-1-[4-(5,6-dihydro-4H-1,3-thiazin-2-ylamino)phenyl]-3-(3-methylphenyl)prop-2-en-1-one] | – |
| – | O=C(CC=Nc1ccc(F)cc1F)c1ccco1 [(E)-3-(2,4-difluoroanilino)-1-(2-furanyl)-2-propen-1-one] | 22.7 µM |
| – | O=C(CC=Nc1ccc(F)c(Cl)c1)c1ccco1 [(E)-3-(3-chloro-4-fluoroanilino)-1-(furan-2-yl)prop-2-en-1-one] | 16.7 µM |

| IC50 [1] | SMILES | IC50 |
| --- | --- | --- |
| – | Cc1ccc(Cl)c(N=CCC(=O)c2ccccc2)c1 [(E)-3-[(2-chloranyl-5-methyl-phenyl)amino]-1-phenyl-prop-2-en-1-one] | 68.8 µM |
| – | O=C(CC=Nc1ccccc1F)c1cccs1 [(E)-3-[(2-fluorophenyl)amino]-1-thiophen-2-yl-prop-2-en-1-one] | 27.9 µM |
| – | O=C(CC=Nc1ccc(F)cc1F)c1cccs1 [(E)-3-[[2,4-bis(fluoranyl)phenyl]amino]-1-thiophen-2-yl-prop-2-en-1-one] | 5.04 µM |
| – | O=C(CC=Nc1ccccn1)c1ccccc1 [(Z)-1-phenyl-3-(pyridin-2-ylamino)prop-2-en-1-one] | 53.7 µM |
| – | O=C(C=Cc1ccc(Br)cc1)c1ccc(N=C2NCCCS2)cc1 [MLS000391412] | 18.3 µM |
| – | Cc1cc(C)c2ccc3c(C)c(C)[nH]c3c2n1 [MLS000729064] | 41.1 µM |
| – | CC[C@@H]1CCC[C@@H](O)[C@@H](C)C(=O)O[C@H](C)[C@@H](C)C/C=C(C)\C(OC)=C/C(=O)N(C)C([C@@H](C)CC)C(=O)N(C)[C@@H](C(C)C)C(=O)N(C)[C@@H](COC)C(=O)N2CCC[C@H]2C(=O)N(C)[C@@H](C(C)C)C(=O)N2CCC[C@H]2C(=O)O1 (stereo partly specified) [MLS003235796] ([NMeξIle][NMeV][NMeS](Me)P[NMeV]P; linker N-C via X1) | 82.4 µM |
| – | O=C(/N=C1\[N-]c2ccc(Br)c[n+]2Cc2ccccc21)c1ccc([N+](=O)[O-])cc1[N+](=O)[O-] [N-(2-bromanyl-11H-pyrido[1,2-b][2,4]benzodiazepin-6-ylidene)-2,4-dinitro-benzamide] | 2.78 µM |
| – | CCOC(=O)c1c(C)oc2c(F)c(F)c(F)c(F)c2c1=O [SMR000041624] | 45.5 µM |
| – | C=c1[nH]n(-c2ccccc2)c(=O)c1=CC=C1N(C)c2ccccc2C1(C)C [SMR000175131] | 87.3 µM and 14.4 µM |
| – | CC1CCCCN1Cc1c(O)ccc2c(=O)c(-c3nc4ccccc4s3)c(N)oc12 (stereo unspecified) [SMR000218869] | 6.82 µM |
| – | O=C(CC=Nc1ccc(Br)cc1)c1cccnc1 [SMR000225438] | 68.9 µM |
| – | O=C(CC=Nc1ccc(Br)cc1F)c1ccco1 [SMR000293180] | 2.19 µM |
| – | O=C1C2=CCC=CC2Oc2ccc(Br)cc21 (stereo unspecified) [SMR000327218] | > 100 µM |
| 61.9 µM | Cn1ccs/c1=N/C(=O)c1ccc(OC(F)(F)F)cc1 [SMR000589314] | – |
